Legend:
[1] = target: T1, RXRβ (Homo sapiens, UniProt P28702); test: Gal4-hybrid reporter gene assay, RXRβ; assay type: cell-based; conditions: Gal4-hybrid reporter gene assay; for EC50: mean±S.E.M., n≥3
T1 construct: CMV-hRXRβ-LBD; expressed in transfected cells; host or cells: HEK293T
T1 sequence (P28702 296-529 limits assumed): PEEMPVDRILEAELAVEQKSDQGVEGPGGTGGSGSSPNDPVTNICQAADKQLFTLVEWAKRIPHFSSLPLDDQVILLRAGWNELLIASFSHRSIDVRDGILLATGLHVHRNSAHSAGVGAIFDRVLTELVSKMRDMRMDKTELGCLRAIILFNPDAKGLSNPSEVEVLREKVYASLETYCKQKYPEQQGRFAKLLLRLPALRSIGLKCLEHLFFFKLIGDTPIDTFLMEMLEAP
Procedure: modified Eagle’s medium (DMEM), high glucose supplemented with 10% fetal calf serum (FCS), sodium pyruvate (1 mM), penicillin (100 U/mL), and streptomycin (100 μg/mL) at 37 °C and 5% CO2 and seeded in 96-well plates (3×10^4 cells/well). After 24 h, the medium was changed to Opti-MEM without supplements, and the cells were transiently transfected using Lipofectamine LTX reagent (Invitrogen) according to the manufacturer’s protocol. Five hours after transfection, the cells were incubated with the test compounds in Opti-MEM supplemented with penicillin (100 U/mL), streptomycin (100 μg/mL), and 0.1% DMSO for 15 h before luciferase activity was measured using the Dual -Glo Luciferase Assay System (Promega) according to the manufacturer’s protocol on a Tecan Spark l uminometer (Tecan Deutschland GmbH, Germany). Firefly luminescence was divided by Renilla luminescence and multiplied by 1000, resulting in relative light units (RLU) to normalize for transfection efficiency and cell growth. Fold activation was obtained by dividing the mean RLU of a sample by the mean RLU of the untreated control. All samples were tested in at least three biologically independent experiments in duplicates. For dose –response curve fitting and calculation of EC50 values, the equation “[Agonist] vs. response – Variable slope (four parameters)” was used in GraphPad Prism (version 5.04, GraphPad Software, La Jolla, CA, USA). […] (10 μM, NR4A) and bexarotene (1 µM, NR2B) served as the positive control. […]
150 μM in the same buffer containing 2-4% DMSO) in 21–26 injections (1 × 1 μL and 20 × 4 to 25 × 4 μL) with an injection interval of 120 s. As control experiments, the test compounds were titrated to the buffer, and the buffer was titrated to the protein under otherwise identical conditions. The heat rates of the compound-Nurr1 LBD titrations were analyzed using NanoAnalyze software (TA Instruments, New Castle, DE) with an independent binding model.

[2] = target: T2, full-length Nurr1 homodimer (NurRE) (Homo sapiens, UniProt P43354); test: Full-length Nurr1 reporter gene assay, homodimer response element NurRE; assay type: cell-based
T2 construct: full-length human nuclear receptor Nurr1 encoded by pcDNA3.1 -hNurr1-NE; host or cells: HEK293T
Procedure: Based on these findings, we next determined the effects of 2 and 3 on Nurr1 activity in a cellular setting using reporter constructs for the NGFI-B response element (NBRE), the Nur response element (NurRE), and the direct repeat 5 (DR5)[36]. All three response elements are robustly activated by common Nurr1 agonists[4],[31]. […]
Reporter gene assays for full-length human Nurr1 and RXR. Modulation of full-length human Nurr1 (NR4A2) was studied using pRL-SV40 (1.5 ng/well reporter plasmid) and the previously described4 reporter plasmids pFR-Luc-NBRE (100 ng/well reporter plasmid), pFR-Luc-NurRE (50 ng/well reporter plasmid) or pFR-Luc-DR5 (50 ng/well reporter plasmid). […] Five hours after transfection, the cells wer e incubated with the test compounds in Opti-MEM supplemented with penicillin (100 U/mL), streptomycin (100 μg/mL), and 0.1% DMSO for 15 h before luciferase activity was measured using the Dual-Glo Luciferase Assay System (Promega) according to the manufacturer’s protocol on a Tecan Spark luminometer (Tecan Deutschland GmbH, Germany). Firefly luminescence was divided by Renilla luminescence and multiplied by 1000, resulting in relative light units (RLU) to normalize for transfection efficiency and cell growth. […]

T2 sequence (P43354 whole entry): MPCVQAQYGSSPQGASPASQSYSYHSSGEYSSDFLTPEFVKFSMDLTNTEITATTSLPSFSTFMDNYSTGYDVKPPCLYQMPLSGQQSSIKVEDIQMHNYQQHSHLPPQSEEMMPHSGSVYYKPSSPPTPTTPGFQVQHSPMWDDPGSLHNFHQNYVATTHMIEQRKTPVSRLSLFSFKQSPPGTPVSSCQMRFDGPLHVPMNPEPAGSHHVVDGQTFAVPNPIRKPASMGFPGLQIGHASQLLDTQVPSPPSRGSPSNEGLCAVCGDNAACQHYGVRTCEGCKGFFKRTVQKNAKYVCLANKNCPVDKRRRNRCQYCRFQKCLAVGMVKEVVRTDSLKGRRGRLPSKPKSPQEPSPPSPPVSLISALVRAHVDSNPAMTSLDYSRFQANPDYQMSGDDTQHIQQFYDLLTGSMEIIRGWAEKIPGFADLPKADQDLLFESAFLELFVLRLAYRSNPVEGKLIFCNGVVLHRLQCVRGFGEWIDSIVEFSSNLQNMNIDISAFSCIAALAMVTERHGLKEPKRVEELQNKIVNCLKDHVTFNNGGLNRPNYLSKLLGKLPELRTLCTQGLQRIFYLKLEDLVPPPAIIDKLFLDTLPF

SMILES	max. act. (RXR) β [1] [fold]	EC50 [1] [µM]	activation on NurRE [2]
Cc1c(C)n(-c2ccc(CC(=O)O)cc2)c2ccc(F)cc12 [compound 3]	103±6	0.6	no activation was detectable
Cc1c2c(n(-c3ccc(CC(=O)O)cc3)c1C)CCC(F)(F)C2 [compound 2]	121±6	4.5	no activation was detectable
